From patent EP1724268A1, “COMPOUND HAVING TGF-BETA INHIBITORY ACTIVITY AND PHARMACEUTICAL COMPOSITION CONTAINING SAME” (KIRIN BEER KABUSHIKI KAISHA, priority 2004, dated 2005)
Like-named read-outs stand apart in the source and are kept apart here.

Test system: TGFβ signal
Test: TGFβ signal inhibitory activity, (SBE)4-Luc reporter in A549 cells (Test Examples 1A and 1B)
Type: cell-based, human
Conditions: Homo sapiens
Method in brief: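 Stable A549 line carrying (SBE)4-Luc Smad3-binding reporter treated with compound plus TGFβ-1 (2 ng/ml) for 4 hr; luciferase read by chemiluminescence. Percent inhibition relative to TGFβ-only and untreated cells, tested at 3 µM and 10 µM, some also at 1 µM.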

[1] = A549, test compound 3 µM, Reference Examples, Table 1B, read-out: TGFβ inhibition rate, %
[2] = A549, test compound 10 µM, Reference Examples, Table 1B, read-out: TGFβ inhibition rate, %
[3] = A549, test compound 3 µM, TGFβ-1 2 ng/ml, 4 hr, Table 1A, read-out: TGFβ inhibition rate, %
[4] = A549, test compound 10 µM, TGFβ-1 2 ng/ml, 4 hr, Table 1A, read-out: TGFβ inhibition rate, %
[5] = A549, 3 µM, compounds of Reference Examples (Test Example 1B), read-out: TGFβ inhibition rate, %
[6] = A549, 10 µM, compounds of Reference Examples (Test Example 1B), read-out: TGFβ inhibition rate, %

Row | Structure (SMILES) | inhibition at 3 µM [5] [%] | inhibition at 10 µM [6] [%] | other results
1 | COc1cc2nccc(Oc3ccccc3C(=O)Nc3ccccc3)c2cc1OC [r104] | – | – | inhibition at 3 µM [1]: 0%; inhibition at 10 µM [2]: 58%
2 | Cc1cc(Oc2ccnc3ccc(-c4ccccc4N)cc23)c(-c2ccccn2)nc1C [Compound 9, 2-[4-(5,6-Dimethyl-[2,2']bipyridin-3-yloxy)-quinolin-6-yl]-phenylamine] | – | – | inhibition at 3 µM [3]: 87%; inhibition at 10 µM [4]: 100%
3 | COc1cc2nccc(Oc3ccc(C)nc3-c3cc(C)no3)c2cc1OC [r258] | 99 | 100 | –
4 | Cc1cc2nccc(Oc3cc(C)c(C)nc3-c3ccccn3)c2cc1C [Compound 170, 3-(6,7-Dimethyl-quinolin-4-yloxy)-5,6-dimethyl-[2,2']bipyridine] | – | – | inhibition at 3 µM [3]: 98%; inhibition at 10 µM [4]: 100%
5 | COc1cc2nccc(Oc3cc(C)c(C)nc3-c3ccccc3)c2cc1OC [r268] | 100 | 100 | –
6 | Cc1cc(Oc2ccnc3ccc(-c4ccccn4)cc23)c(-c2ccccn2)nc1C [Compound 174, 5,6-Dimethyl-3-(6-pyridin-2-yl-quinolin-4-yloxy)-[2,2']bipyridine] | – | – | inhibition at 3 µM [3]: 89%; inhibition at 10 µM [4]: 100%
7 | COc1cc2nccc(Oc3ccc(C(=O)c4cccc(C)c4)cc3)c2cc1OC [r78] | – | – | inhibition at 3 µM [1]: 0%; inhibition at 10 µM [2]: 57%
8 | COc1cc2nccc(Oc3cc(C)c(C)nc3-c3ccc(O)nc3)c2cc1OC [Compound r430] | 19 | 78 | –
9 | COc1cc2nccc(Oc3cccnc3OC3CCCC3)c2cc1OC [Compound r204, 4-(2-Cyclopentyloxy-pyridin-3-yloxy)-6,7-dimethoxy-quinoline] | 14 | 77 | –
10 | CCC(=O)c1cc(OC(F)(F)F)ccc1Oc1ccnc2cc(OC)c(OC)cc12 [Compound r51] | – | – | inhibition at 3 µM [1]: 71%; inhibition at 10 µM [2]: 99%
11 | COc1cc2nccc(Oc3ccc(C)nc3-c3ccccc3O)c2cc1OC [Compound r226] | 60 | 96 | –
12 | COc1cc2nccc(Oc3cc4ccccc4nc3C)c2cc1OCc1ccccc1 [Compound r415, 6-Benzyloxy-7-methoxy-4-(2-methyl-quinolin-3-yloxy)-quinoline] | 77 | 100 | –
13 | COc1cc2nccc(Oc3cc(Cl)cnc3OC3CCCC3)c2cc1OC [r222] | 44 | 100 | –
14 | CCc1ccc(Oc2ccnc3ccc(OCCNS(C)(=O)=O)cc23)c(-c2ncccn2)n1 [Compound 203, N-{2-[4-(6-Ethyl-2-pyrimidin-2-yl-pyridin-3-yloxy)-quinolin-6-yloxy]-ethyl}-methanesulfonic acid amide] | – | – | inhibition at 3 µM [3]: 79%
15 | COc1cc2nccc(Oc3ccc(F)nc3)c2cc1OC [r205] | 26 | 57 | –
16 | COc1cc2nccc(Oc3ccc(C)nc3I)c2cc1OC [r116] | – | – | inhibition at 3 µM [1]: 99%; inhibition at 10 µM [2]: 100%
17 | COc1cc2nccc(Oc3ccc(C)nc3C(OC(C)=O)c3ccccc3)c2cc1OC (centres unmarked) [r218] | 21 | 56 | –
18 | COc1cc2nccc(Oc3ccc(C)nc3-c3cccc(C)c3)c2cc1OC [Compound r229] | 99 | 100 | –
19 | COc1cc2nccc(Oc3ccc(C)cc3-c3ccno3)c2cc1OC [r12] | – | – | inhibition at 3 µM [1]: 21%; inhibition at 10 µM [2]: 89%
20 | COc1cc2c(Oc3cc4ccccc4nc3C)ccnc2cc1OCCN(C)C [Compound r355] | 100 | 100 | –
21 | COc1cc2nccc(Oc3ccc(SC)nc3-c3cccnc3)c2cc1OC [r267] | 34 | 83 | –
22 | Cc1cc(Oc2ccnc3ccc(-c4cn[nH]c4)cc23)c(-c2ccccn2)nc1C [Compound 169, 5,6-Dimethyl-3-[6-(1H-pyrazol-4-yl)-quinolin-4-yloxy]-[2,2']bipyridine] | – | – | inhibition at 3 µM [3]: 100%; inhibition at 10 µM [4]: 100%
23 | COc1cc2nccc(Oc3cc4ccccc4nc3-c3ncccn3)c2cc1OC [Compound 92, 6,7-Dimethoxy-4-(2-pyrimidin-2-yl-quinolin-3-yloxy)-quinoline] | – | – | inhibition at 1 µM (A549, test compound 1 µM, TGFβ-1 2 ng/ml, 4 hr, Table 1A, read-out: TGFβ inhibition rate, %): 62%; inhibition at 3 µM [3]: 98%
24 | COc1cc2nccc(Oc3cc(C)c(C)nc3-c3ncccn3)c2cc1F [Compound 158, 4-(5,6-Dimethyl-2-pyrimidin-2-yl-pyridin-3-yloxy)-6-fluoro-7-methoxy-quinoline] | – | – | inhibition at 3 µM [3]: 98%; inhibition at 10 µM [4]: 100%
25 | CCc1nc2ncccc2cc1Oc1ccnc2cc(OC)c(F)cc12 [Compound 161, 2-Ethyl-3-(6-fluoro-7-methoxy-qulnolin-4-yloxy)-[1,8]naphthyridine] | – | – | inhibition at 3 µM [3]: 68%; inhibition at 10 µM [4]: 95%
26 | COc1cc2c(Oc3ccc(C)cc3C(=O)c3ccccc3)ccnc2cc1OCCN1CCOCC1 [Compound r130] | – | – | inhibition at 3 µM [1]: 90%; inhibition at 10 µM [2]: 100%

Row | Structure (SMILES) | inhibition at 3 µM [5] [%] | inhibition at 10 µM [6] [%] | other results
27 | COc1cc2c(Oc3cc4ccccc4nc3C)ccnc2cc1OCC(CO)(CO)CBr [Compound r389] | 100 | 100 | –
28 | COc1cc2nccc(Oc3cc(C)c(C)nc3-c3cccc(C)n3)c2cc1OC [Compound r271] | 94 | 100 | –
29 | COc1cc2nccc(Oc3cc(C)c(C)cc3C(C)=NN)c2cc1OC [Compound r193, {1-[2-(6,7-Dimethoxy-quinolin-4-yloxy)-4,5-dimethylphenyl]-ethylidene}-hydrazine] | 74 | 99 | –
30 | COc1cc2nccc(Oc3ccc(C)cc3-c3cccnc3)c2cc1OC [r168] | 22 | 74 | –
31 | COc1cc2c(Oc3ccc(C)cc3C(=O)c3ccccc3)ccnc2cc1OCCCl [r123] | – | – | inhibition at 3 µM [1]: 98%; inhibition at 10 µM [2]: 100%
32 | Cc1cc(Oc2ccnc3cc(C(N)=O)ccc23)c(-c2ccccn2)nc1C [Compound 126, 4-(5,6-Dimethyl-[2,2']bipyridinyl-3-yloxy)-quinoline-7-carboxylic acid amide] | – | – | inhibition at 3 µM [3]: 93%; inhibition at 10 µM [4]: 100%
33 | COc1cc2nccc(Oc3ccc(C)nc3-c3ncccn3)c2cc1OC [Compound 188, 4-(6-Methyl-2-pyrimidin-2-yl-pyridin-3-yloxy)-6,7-dimethoxy-quinoline] | – | – | inhibition at 3 µM [3]: 100%; inhibition at 10 µM [4]: 100%
34 | Cc1cc(Oc2ccnc3cc(-c4ccccc4N)ccc23)c(-c2ccccn2)nc1C [Compound 108, 2-[4-(5,6-Dimethyl-[2,2']bipyridinyl-3-yloxy)-quinolin-7-yl]-phenylamine] | – | – | inhibition at 3 µM [3]: 96%; inhibition at 10 µM [4]: 100%
35 | COc1cc2c(Oc3cc(C)c(C)cc3C(C)=O)ccnc2cc1OCCCCl [Compound r318] | 82 | 100 | –
36 | COc1cc2nccc(Oc3cc4ccccc4nc3C)c2cc1OC [r276] | 89 | 100 | –
37 | COc1ccc(Oc2ccnc3cc(O)c(OC)cc23)c(C(C)=O)c1 [r312] | 50 | 76 | –
38 | COc1cc2c(Oc3ccc(C)cc3C(=O)c3ccccc3)ccnc2cc1OCCN1CCNCC1 [Compound r128] | – | – | inhibition at 3 µM [1]: 100%; inhibition at 10 µM [2]: 100%
39 | COc1cc2nccc(Oc3ccc(Cl)cc3C(=O)c3ccccc3)c2cc1OC [Compound r69] | – | – | inhibition at 3 µM (A549, read-out: TGFβ inhibition rate, %): 100%
40 | CCCOC(=O)c1cc2ccccc2cc1Oc1ccnc2cc(OCCCCl)c(OC)cc12 [Compound r325] | 19 | 60 | –
41 | COc1cc2nccc(Oc3ccc(C)nc3-c3cnn(C)c3)c2cc1OC [r438] | 99 | 100 | –
42 | COc1cc2c(Oc3cc(C)c(C)nc3-c3ccccn3)ccnc2cc1OCC1CO1 (centres unmarked) [Compound r341] | 99 | – | –
43 | COc1ccc(Oc2ccnc3cc(OC)c(OC)cc23)c(C(=O)c2ccccc2)c1 [r74] | – | – | inhibition at 3 µM [1]: 27%; inhibition at 10 µM [2]: 84%
44 | COc1cc2nccc(Oc3cc4ccccc4cc3O)c2cc1OC [r425] | 72 | 100 | –
45 | COc1cc2nccc(Oc3ccc(C)nc3-c3ccccc3C)c2cc1OC [Compound r224] | 69 | 96 | –
46 | COc1cc2nccc(Oc3ccc(C)nc3-c3ccccc3Cl)c2cc1OC [Compound r228] | 88 | 100 | –
47 | COc1cc2c(Oc3cc4ccccc4nc3C(C)=O)ccnc2cc1OCCN1CCOCC1 [Compound r391] | 99 | 100 | –
48 | c1ccc(-c2nc3ncccc3cc2Oc2ccnc3ccccc23)cc1 [Compound 52, 2-Phenyl-3-(quinolin-4-yloxy)-[1,8]naphthyridine] | – | – | inhibition at 3 µM [3]: 96%; inhibition at 10 µM [4]: 100%
49 | COc1cc2nccc(Oc3ccc(C)cc3CN3CCCCC3)c2cc1OC [Compound r6, 6,7-Dimethoxy-4-[4-methyl-2-(piperidinomethyl)phenoxy]quinoline] | – | – | inhibition at 3 µM [1]: 30%; inhibition at 10 µM [2]: 72%
50 | CCc1ccc(Oc2ccnc3ccc(OCc4ccccc4)cc23)c(-c2ccccn2)n1 [Compound 183, 3-(6-Benzyloxy-quinolin-4-yloxy)-6-ethyl-[2,2']bipyridine] | – | – | inhibition at 3 µM [3]: 100%; inhibition at 10 µM [4]: 100%
51 | Cc1ccc(Oc2ccnc3ccc(OCC(C)(C)C)cc23)c(-c2ncccn2)n1 [Compound 214, 6-(2,2-Dimethyl-propoxy)-4-(6-methyl-2-pyrimidin-2-yl-pyridin-3-yloxy)-quinoline] | – | – | inhibition at 3 µM [3]: 90%
